Assay results published in US9113629B2, “4-amino-6-(4-substituted-phenyl)-picolinates and 6-amino-2-(4-substituted-phenyl)-pyrimidine-4-carboxylates and their use as herbicides” (DOW AGROSCIENCES LLC, priority 2013, dated 2015).
Where two headings read alike, the source gives them in different places.

How the values were obtained:
[1] = system: Key Broadleaf Weed and Crop Species; experiment: Post-emergent Test II herbicidal activity (Table 5); assay type: in vivo; conditions: post-emergence, 336 h, post-emergent, 14 days after application; for pest or weed control at 70 g/ha: 70 g ai/ha; for pest or weed control at 140 g/ha: 140 g ai/ha
Method in brief: (§1)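 Test species were raised 7–21 d under greenhouse conditions until reaching the first or second true leaf, sprayed with formulated compound at 187 L/ha, and kept subirrigated to avoid wash-off. Fourteen days later, damage was rated visually on a 0–100% scale against untreated plants.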

[2] = system: Key Grass and Sedge Weeds as well as Grass Crops; experiment: Post-emergent Test II herbicidal activity (Table 6); assay type: in vivo; conditions: post-emergence, 336 h; for pest or weed control at 70 g/ha: application rate 70 g ai/ha; for pest or weed control at 140 g/ha: application rate 140 g ai/ha
Method in brief: as §1

[3] = ABUTH: velvetleaf (Abutilon theophrasti), read-out: Visual Growth Reduction (%) 14 Days After Application ABUTH
[4] = AMARE: redroot pigweed (Amaranthus retroflexus), read-out: Visual Growth Reduction (%) 14 Days After Application AMARE
[5] = BRSNN: oilseed-rape, canola (Brassica napus), read-out: Visual Growth Reduction (%) 14 Days After Application BRSNN
[6] = CHEAL: lambsquarters (Chenopodium album), read-out: Visual Growth Reduction (%) 14 Days After Application CHEAL
[7] = EPHHL: wild poinsettia (Euphorbia heterophylla), read-out: Visual Growth Reduction (%) 14 Days After Application EPHHL
[8] = HELAN: sunflower (Helianthus annuus), read-out: Visual Growth Reduction (%) 14 Days After Application HELAN
[9] = VIOTR: wild pansy (Viola tricolor), read-out: Visual Growth Reduction (%) 14 Days After Application VIOTR
[10] = Triticum aestivum, TRZSS (wheat), read-out: Visual Growth Reduction (%) 14 Days After Application, TRZSS
[11] = CYPES: yellow nutsedge (Cyperus esculentus), read-out: Visual Growth Reduction (%) 14 Days After Application, CYPES
[12] = DIGSA: crabgrass (Digitaria sanguinalis), read-out: Visual Growth Reduction (%) 14 Days After Application, DIGSA
[13] = ECHCG: barnyardgrass (Echinochloa crus-galli), read-out: Visual Growth Reduction (%) 14 Days After Application, ECHCG
[14] = ORYSA: rice (Oryza sativa), read-out: Visual Growth Reduction (%) 14 Days After Application, ORYSA
[15] = SETFA: giant foxtail (Setaria faberi), read-out: Visual Growth Reduction (%) 14 Days After Application, SETFA
[16] = SORVU: grain sorghum (Sorghum vulgare), read-out: Visual Growth Reduction (%) 14 Days After Application, SORVU
[17] = ZEAMX: maize, corn (Zea mays), read-out: Visual Growth Reduction (%) 14 Days After Application, ZEAMX

| Compound | pest or weed control at 70 g/ha [1, 3] [%] | pest or weed control at 140 g/ha [1, 3] [%] | pest or weed control at 70 g/ha [1, 4] [%] | pest or weed control at 140 g/ha [1, 4] [%] | pest or weed control at 70 g/ha [1, 5] [%] | pest or weed control at 140 g/ha [1, 5] [%] | pest or weed control at 70 g/ha [1, 6] [%] | pest or weed control at 140 g/ha [1, 6] [%] | pest or weed control at 70 g/ha [1, 7] [%] | pest or weed control at 140 g/ha [1, 7] [%] | pest or weed control at 70 g/ha [1, 8] [%] | pest or weed control at 140 g/ha [1, 8] [%] | pest or weed control at 70 g/ha [1, 9] [%] | pest or weed control at 140 g/ha [1, 9] [%] | pest or weed control at 70 g/ha [2, 10] [%] | pest or weed control at 140 g/ha [2, 10] [%] | pest or weed control at 70 g/ha [2, 11] [%] | pest or weed control at 140 g/ha [2, 11] [%] | pest or weed control at 70 g/ha [2, 12] [%] | pest or weed control at 140 g/ha [2, 12] [%] | also measured |
| --- | --- | --- | --- | --- | --- | --- | --- | --- | --- | --- | --- | --- | --- | --- | --- | --- | --- | --- | --- | --- | --- |
| COC(=O)c1nc(-c2ccc(I)cc2)c(Cl)c(N)c1Cl [Compound 96] | 95 to 100 | 95 to 100 | 85 to 94 | 95 to 100 | 75 to 84 | 85 to 94 | 95 to 100 | 95 to 100 | 75 to 84 | 45 to 59 | 95 to 100 | 95 to 100 | 0 to 29 | 0 to 29 | 60 to 74 | 75 to 84 | 95 to 100 | 95 to 100 | 60 to 74 | 75 to 84 | pest or weed control at 70 g/ha [2, 13]: 0 to 29%; pest or weed control at 140 g/ha [2, 13]: 60 to 74%; pest or weed control at 70 g/ha [2, 14]: 0 to 29%; pest or weed control at 140 g/ha [2, 14]: 0 to 29%; pest or weed control at 70 g/ha [2, 15]: 60 to 74%; pest or weed control at 140 g/ha [2, 15]: 75 to 84%; pest or weed control at 70 g/ha [2, 16]: 85 to 94%; pest or weed control at 140 g/ha [2, 16]: 85 to 94%; pest or weed control at 70 g/ha [2, 17]: 75 to 84%; pest or weed control at 140 g/ha [2, 17]: 75 to 84% |
| COC(=O)c1nc(-c2cc(F)c(I)cc2F)c(Br)c(N)c1Cl [Compound 100] | 85 to 94 | 85 to 94 | 85 to 94 | 95 to 100 | 60 to 74 | 60 to 74 | 95 to 100 | 95 to 100 | 45 to 59 | 45 to 59 | 85 to 94 | 85 to 94 | 0 to 29 | 0 to 29 | 30 to 44 | 60 to 74 | 0 to 29 | 0 to 29 | 45 to 59 | 60 to 74 | pest or weed control at 70 g/ha [2, 13]: 0 to 29%; pest or weed control at 140 g/ha [2, 13]: 0 to 29%; pest or weed control at 70 g/ha [2, 14]: 0 to 29%; pest or weed control at 140 g/ha [2, 14]: 0 to 29%; pest or weed control at 70 g/ha [2, 15]: 0 to 29%; pest or weed control at 140 g/ha [2, 15]: 0 to 29%; pest or weed control at 70 g/ha [2, 16]: 0 to 29%; pest or weed control at 140 g/ha [2, 16]: 0 to 29%; pest or weed control at 70 g/ha [2, 17]: 0 to 29%; pest or weed control at 140 g/ha [2, 17]: 45 to 59% |
| COC(=O)c1nc(-c2cc(F)c(I)cc2F)nc(N)c1OC [Compound 101] | 85 to 94 | 85 to 94 | 85 to 94 | 85 to 94 | 95 to 100 | 95 to 100 | 85 to 94 | 85 to 94 | 95 to 100 | 95 to 100 | 85 to 94 | 85 to 94 | 0 to 29 | 0 to 29 | 30 to 44 | 30 to 44 | 45 to 59 | 45 to 59 | 45 to 59 | 60 to 74 | pest or weed control at 70 g/ha [2, 13]: 0 to 29%; pest or weed control at 140 g/ha [2, 13]: 85 to 94%; pest or weed control at 70 g/ha [2, 14]: 0 to 29%; pest or weed control at 140 g/ha [2, 14]: 0 to 29%; pest or weed control at 70 g/ha [2, 15]: 0 to 29%; pest or weed control at 140 g/ha [2, 15]: 60 to 74%; pest or weed control at 70 g/ha [2, 16]: 30 to 44%; pest or weed control at 140 g/ha [2, 16]: 45 to 59%; pest or weed control at 70 g/ha [2, 17]: 60 to 74%; pest or weed control at 140 g/ha [2, 17]: 60 to 74% |
